Values after ≈ are worked out from the molar mass of the structure shown. Where two headings read alike, the source gives them in different places.
Experiments:
[1] = test system: L569 E. faecium VanA; assay: MIC, broth microdilution (CLSI); assay type: cell-based, Enterococcus faecium
Method: (§1) Inocula are: 2-5×10^5 CFU/mL for Gram positive and Gram negative bacteria; 10^4 CFU/mL for Candida albicans.
(§2) The effect of 30% bovine serum is determined under the same experimental conditions.
(§3) Cultures are incubated at 35° C. in air. After 18-24 hours visual readings are performed and MICs determined. The MIC (Minimal Inhibitory Concentration) is defined as the lower concentration of antibiotic at which there is no visible growth. The strains used are clinical isolates or strains from American Type Culture Collection (ATCC).

[2] = test system: L560 E. faecalis VanA; assay: MIC, broth microdilution (CLSI); assay type: cell-based, Enterococcus faecalis
Method: as §1, §2, §3

[3] = test system: L819 S. aureus Smith ATCC19636; assay: MIC, broth microdilution (CLSI); assay type: cell-based, Staphylococcus aureus
Method: as §1, §2, §3

[4] = test system: L1400 S. aureus MRSA; assay: MIC, broth microdilution (CLSI); assay type: cell-based; details: Staphylococcus aureus
Method: as §1, §2, §3

[5] = test system: L568 E. faecium; assay: MIC, broth microdilution (CLSI); assay type: cell-based; details: Enterococcus faecium
Method: as §1, §2, §3

[6] = test system: L44 S. pneumoniae; assay: MIC, broth microdilution (CLSI); assay type: cell-based; details: Streptococcus pneumoniae
Method: as §1, §2, §3

[7] = test system: L1577 S. epidermidis; assay: MIC, broth microdilution (CLSI); assay type: cell-based; details: Staphylococcus epidermidis
Method: as §1, §2, §3

[8] = test system: L100 S. aureus ATCC 6538; assay: MIC, broth microdilution (CLSI); assay type: cell-based; details: Staphylococcus aureus, ATCC6538
Method: as §1, §2, §3

[9] = test system: L47 E. coli, SKF 12140; assay: MIC, broth microdilution (CLSI); assay type: cell-based; details: Escherichia coli
Method: as §1, §2, §3

[10] = test system: L1730 S. haemolyticus; assay: MIC, broth microdilution (CLSI); assay type: cell-based; details: Staphylococcus haemolyticus
Method: as §1, §2, §3

[11] = test system: L3294 M. catarrhalis; assay: MIC, broth microdilution (CLSI); assay type: cell-based; details: Moraxella catarrhalis
Method: as §1, §2, §3

[12] = test system: L49 S. pyogenes C203; assay: MIC, broth microdilution (CLSI); assay type: cell-based; details: Streptococcus pyogenes
Method: as §1, §2, §3

[13] = test system: L559 E. faecalis; assay: MIC, broth microdilution (CLSI); assay type: cell-based; details: Enterococcus faecalis
Method: as §1, §2, §3

[14] = test system: L1729 S. haemolyticus MDR; assay: MIC, broth microdilution (CLSI); assay type: cell-based; details: Staphylococcus haemolyticus
Method: as §1, §2, §3

[15] = test system: Staphylococcus aureus Smith ATCC 19636; assay: Murine Staphylococcus aureus infection model; assay type: in vivo, ICR mice
Method: Female ICR mice (Harlan, Italy) weighing 21-24 g are infected intraperitoneally (ip) with 5×10^4 cells of Staphylococcus aureus Smith ATCC 19636 in 0.5 mL of 5% gastric mucine. Antibiotic FIIRV 104/18 factor F795 is administered intravenously (iv) within 10-15 min after infection. […] In: Statistical Methods in Biological Assay, 524-530, (1952) Charles Griffin &Co., Ltd., London].

[16] = test system: L3030 A. baumannii; assay: MIC, broth microdilution (CLSI); assay type: cell-based; details: Acinetobacter baumannii; L3030 A. baumannii; read-out: MIC
Method: as §1, §2, §3

[17] = test system: Gram-positive susceptible, resistant and multi-resistant pathogenic bacteria; assay: Growth inhibition of Gram-positive bacteria (summary); assay type: cell-based; details: Gram positive bacteria: Staphylococci incl. MRSA and MR coagulase-negative, Streptococci, Enterococci incl. VanA
Method: (§4) Antimicrobial activity of the antibiotic FIIRV 104/18 complex is determined by the broth microdilution method according to the procedures published by the Clinical and Laboratory Standards Institute (CLSI), formerly the National Committee for Clinical Laboratory Standards (NCCLS) (document M07-A9). Inocula are: 2-5×10^5 CFU/mL for Gram positive and Gram negative bacteria; 10^4 CFU/mL for Candida albicans.
(§5) The media used are: cation adjusted Mueller Hinton broth (CAMHB) for Staphylococci, Enterococci, Moraxella catarrhalis, Escherichia coli; Todd Hewitt broth (THB) for Streptococci; RPMI 1640 Medium for C. albicans. The effect of 30% bovine serum is determined under the same experimental conditions.
(§6) Cultures are incubated at 35° C. in air. After 18-24 hours visual readings are performed and MICs determined. The MIC (Minimal Inhibitory Concentration) is defined as the lower concentration of antibiotic at which there is no visible growth. The strains used are clinical isolates or strains from American Type Culture Collection (ATCC). Individual factors of antibiotic FIIRV 104/18 are dissolved in DMSO to obtain a 1000 μg/mL stock solution, and subsequently diluted in water to obtain working solution.

[18] = test system: L145 C. albicans; assay: MIC, broth microdilution (CLSI); assay type: cell-based, Candida albicans; details: Candida albicans; L145 C. albicans; RPMI; inoculum 10^4 CFU/mL; read-out: MIC
Method: as §4, §5, §6

[19] = test system: L2048 B. cenocepacia; assay: MIC, broth microdilution (CLSI); assay type: cell-based; details: Burkholderia cenocepacia; L2048 B. cenocepacia; read-out: MIC
Method: as §4, §5, §6

[20] = test system: HeLa cells; assay: Inhibition of replication of HeLa cells; assay type: cell-based
[21] = Enterococcus faecium, L569 E. faecium VanA, +30% SB (bovine serum), read-out: MIC
[22] = Enterococcus faecium, L569 E. faecium VanA, CAMHB, read-out: MIC
[23] = Enterococcus faecalis, L560 E. faecalis VanA, +30% SB (bovine serum), read-out: MIC
[24] = Enterococcus faecalis, L560 E. faecalis VanA, CAMHB, read-out: MIC
[25] = Staphylococcus aureus, ATCC19636, L819 S. aureus Smith ATCC19636, CAMHB, read-out: MIC
[26] = Staphylococcus aureus, ATCC19636, L819 S. aureus Smith, +30% SB (bovine serum), read-out: MIC
[27] = L1400 S. aureus MRSA, CAMHB, read-out: MIC
[28] = L568 E. faecium, CAMHB, read-out: MIC
[29] = L44 S. pneumoniae, THB, read-out: MIC
[30] = L1577 S. epidermidis, CAMHB, read-out: MIC
[31] = L100 S. aureus ATCC 6538, CAMHB, read-out: MIC
[32] = L47 E. coli, SKF 12140, CAMHB, read-out: MIC
[33] = L1730 S. haemolyticus, CAMHB, read-out: MIC
[34] = L3294 M. catarrhalis, CAMHB, read-out: MIC
[35] = L49 S. pyogenes C203, THB, read-out: MIC
[36] = L559 E. faecalis, CAMHB, read-out: MIC
[37] = L1729 S. haemolyticus MDR, CAMHB, read-out: MIC

SMILES: CN[C@H](CC(C)C)C(=O)N[C@H]1C(=O)N[C@@H](CC(N)=O)C(=O)N[C@H]2C(=O)N[C@H]3C(=O)N[C@H](C(=O)N[C@H](C(=O)O)c4cc(O)cc(O)c4-c4cc3ccc4O)[C@H](O)c3ccc(c(Cl)c3)Oc3cc2cc(c3O[C@@H]2O[C@H](CO)[C@@H](O)[C@H](O)[C@H]2O[C@H]2C[C@](C)(N)[C@H](O)[C@H](C)O2)Oc2ccc(cc2Cl)[C@H]1O [V, vancomycin, reference compound]
- MIC ([1]; Enterococcus faecium): > 128 µg/mL
- MIC ([1]; L569 E. faecium VanA, +30% SB (bovine serum)): >128 µg/mL
- MIC ([2]; Enterococcus faecalis): > 128 µg/mL
- MIC ([2]; L560 E. faecalis VanA, +30% SB (bovine serum)): >128 µg/mL
- MIC ([3]; L819 S. aureus Smith, +30% SB (bovine serum)): 1 µg/mL (≈ 0.69 µM)
- MIC ([3]; Staphylococcus aureus, ATCC19636): 1 µg/mL (≈ 0.69 µM)
- MIC ([4]; MRSA): 1 µg/mL (≈ 0.69 µM)
- MIC [5]: 2 µg/mL (≈ 1.38 µM)
- MIC [6]: 0.5 µg/mL (≈ 0.345 µM)
- MIC [7]: 2 µg/mL (≈ 1.38 µM)
- MIC [8]: 1000 ng/mL (≈ 0.69 µM)
- MIC [9]: > 2 µg/mL
- MIC [10]: 2 µg/mL (≈ 1.38 µM)
- MIC [11]: > 2 µg/mL
- MIC [12]: 0.5 µg/mL (≈ 0.345 µM)
- MIC [13]: 1 µg/mL (≈ 0.69 µM)
- MIC [14]: 2 µg/mL (≈ 1.38 µM)
- ED50 ([15]; ATCC19636, read-out: ED50 (50% effective dose)): 0.93 mg/kg

SMILES: COC(=O)c1c(C)cc2c(c1O)[C@]1(O)C(=O)c3cc4c(c(O)c3C(=O)[C@]1(OC)[C@H](O)C2)C(=O)C=C(N[C@H]1O[C@@H](C)[C@H](O[C@@H]2CCC(=O)[C@H](C)O2)[C@@H](O)[C@H]1OC)C4=O [F795, (6R,6aS,14aR)-methyl 11-[(2S,3R,4R,5R,6S)-4-hydroxy-3-methoxy-6-methyl-5-{[(2S,6S)-6-methyl-5-oxotetrahydro-2H-pyran-2-yl]oxy}tetrahydro-2H-pyran-2-ylamino]-1,6,8,14a-tetrahydroxy-6a-methoxy-3-methyl-7,9,12,14-tetraoxo-5,6,6a,7,9,12,14,14a-octahydrobenzo[a]tetracene-2-carboxylate]
- MIC [1, 21]: 2 µg/mL (≈ 2.51 µM)
- MIC [1, 22]: 0.25 µg/mL (≈ 0.314 µM)
- MIC [2, 23]: 0.5 µg/mL (≈ 0.628 µM)
- MIC [2, 24]: 0.125 µg/mL (≈ 0.157 µM)
- MIC [3, 25]: 0.002 µg/mL (≈ 0.00251 µM)
- MIC [3, 26]: 0.125 µg/mL (≈ 0.157 µM)
- MIC [4, 27]: 0.015 µg/mL (≈ 0.0189 µM)
- MIC [5, 28]: 0.25 µg/mL (≈ 0.314 µM)
- MIC [6, 29]: 0.015 µg/mL (≈ 0.0189 µM)
- MIC [7, 30]: 0.015 µg/mL (≈ 0.0189 µM)
- MIC [8, 31]: 8 ng/mL (≈ 0.0101 µM)
- MIC [9, 32]: > 128 µg/mL
- MIC [10, 33]: 0.015 µg/mL (≈ 0.0189 µM)
- MIC [11, 34]: 0.125 µg/mL (≈ 0.157 µM)
- MIC [12, 35]: 0.015 µg/mL (≈ 0.0189 µM)
- MIC [16]: 16 µg/mL (≈ 20.1 µM)
- MIC [13, 36]: 0.25 µg/mL (≈ 0.314 µM)
- MIC [14, 37]: 0.015 µg/mL (≈ 0.0189 µM)
- antibacterial activity (in words) [17]: very high antibacterial activity
- MIC [18]: > 128 µg/mL
- ED50 ([15]; ATCC19636, read-out: ED50 (50% effective dose), mice infected ip with S. aureus Smith ATCC 19636, iv within 10-15 min after infection, Spearman-Karber): 0.8 mg/kg
- MIC [19]: 32 µg/mL (≈ 40.2 µM)

SMILES: COC(=O)c1c(C)cc2c(c1O)[C@]1(O)C(=O)c3cc4c(c(O)c3C(=O)[C@]1(OC)[C@H](O)C2)C(=O)C=C(NC1O[C@@H](C)[C@H](OC2CC[C@H](O)C(C)O2)[C@@H](O)[C@H]1OC)C4=O (stereo partly drawn) [F797, (6R,6aS,14aR)-methyl 11-[(2S,3R,4R,5R,6S)-4-hydroxy-5-{[(2R,5S,6S)-5-hydroxy-6-methyltetrahydro-2H-pyran-2-yl]oxy}-3-methoxy-6-methyltetrahydro-2H-pyran-2-ylamino]-1,6,8,14a-tetrahydroxy-6a-methoxy-3-methyl-7,9,12,14-tetraoxo-5,6,6a,7,9,12,14,14a-octahydrobenzo[α]tetracene-2-carboxylate]
- MIC [1, 21]: 2 µg/mL (≈ 2.51 µM)
- MIC [1, 22]: 0.5 µg/mL (≈ 0.627 µM)
- MIC [2, 23]: 0.5 µg/mL (≈ 0.627 µM)
- MIC [2, 24]: 0.125 µg/mL (≈ 0.157 µM)
- MIC [3, 25]: 0.002 µg/mL (≈ 0.00251 µM)
- MIC [3, 26]: 0.125 µg/mL (≈ 0.157 µM)
- MIC [4, 27]: 0.015 µg/mL (≈ 0.0188 µM)
- MIC [5, 28]: 0.5 µg/mL (≈ 0.627 µM)
- MIC [6, 29]: 0.004 µg/mL (≈ 0.00501 µM)
- MIC [7, 30]: 0.015 µg/mL (≈ 0.0188 µM)
- MIC [8, 31]: 8 ng/mL (≈ 0.01 µM)
- MIC [9, 32]: 64 µg/mL (≈ 80.2 µM)
- MIC [10, 33]: 0.015 µg/mL (≈ 0.0188 µM)
- MIC [11, 34]: 0.06 µg/mL (≈ 0.0752 µM)
- MIC [12, 35]: 0.002 µg/mL (≈ 0.00251 µM)
- MIC [16]: 16 µg/mL (≈ 20.1 µM)
- MIC [13, 36]: 0.25 µg/mL (≈ 0.313 µM)
- MIC [14, 37]: 0.015 µg/mL (≈ 0.0188 µM)
- antibacterial activity (in words) [17]: very high antibacterial activity
- MIC [18]: > 128 µg/mL
- cytotoxicity (in words) ([20]; HeLa cells): moderate cytotoxicity
- IC50 ([20]; Homo sapiens, HeLa): 5 µg/mL (≈ 6.27 µM)
- MIC [19]: 16 µg/mL (≈ 20.1 µM)

— patent US20190002942A1, “ANTIBIOTIC FIIRV 104/18 COMPLEX AND THE ISOLATED INDIVIDUAL FACTORS THEREOF” (Fondazione Istituto Insubrico di Ricerca per la Vita, priority 2015, published 2019)
